Laboratory results: EP4741392A1, “1H-PYRAZOLO[4,3-C]PYRIDINE COMPOUND, AND COMPOSITION THEREOF AND USE THEREOF” (Shenzhen TargetRx Co., Ltd., priority 2023, dated 2025)

How the values were obtained:
Format in all cases: cell-based
OCI-LY10 cells = test: Viability assay of OCI-LY10 cells (CTG); conditions: Homo sapiens, OCI-Ly10, 120 h, cell viability, read-out: OCl-Ly10
Protocol: (§1) The in vitro antiproliferative activity of the compounds of the present disclosure against TMD8 cells and OCI-LY10 cells was assayed using CTG (Cell Titer-Glo) luminescent cell viability assay. The specific assay methods were as follows. • a) TMD8 cells were cultured at 37 °C and 5% CO2 in complete medium [RPMI 1640 (supplier Gibco, product number 22400-089) + 10% FBS (supplier Gibco, product number 10091-148) + 1% P/S (supplier Hyclone, product number SV30010)]; OCI-LY10 cells were cultured at 37 °C and 5% CO2 in medium [IMDM (supplier Gibco, product number 31980-030) + 20% FBS (supplier Gibco, product number 10091-148) + 1% P/S (supplier Hyclone, product number SV30010) + 0.05 mM 2-Mercaptoethanol (supplier Sigma, product number M6250)]. • b) Cells in the logarithmic growth phase were harvested, and the total cell count and viable cell count were determined using a Vi-cell cell counter (supplier: BECKMAN COULTER, product number 2785198). • c) Cell density was adjusted using complete culture medium. Then, the cells were inoculated at 1500 cells per well in a 384-well cell culture plate (supplier Greiner, product number 781090). • d) The cells in the 384-well plate were cultured at 37 °C and 5% CO2 overnight. • e) A 10-fold drug solution was prepared, and then the serially diluted compound was transferred to the corresponding assay wells of the 384-well cell plate so that the final assay concentration was 1000 nM, with 9 concentrations, 3-fold dilutions, and triplicates for each drug concentration. • f) The cells in the 384-well plate with the drug added were cultured at 37 °C and 5% CO2 for another 120 hours. • g) The cells were removed from the incubator, and allowed to equilibrate at room temperature for 30 minutes. The cell state and compound solubility were observed under a microscope. • h) An equal volume of CellTiterGlo solution (supplier Promega, product number G7573) was added to each well, and the plate was incubated at room temperature for 30 minutes. • i) Then, the luminescent signal value was detected on an EnVision instrument (supplier PerkinElmer, product number 2441715).
(§2) The data were analyzed using XL-fit software (supplier: ID Business Solutions Ltd., software version: XL fit 5.5.0.5). Nonlinear regression was performed using X=Log(X), and the X values were transformed using a four-parameter Logistic model 205, from which the IC50 values were calculated. Inhibition rate % = (Max−samplevalue)/Max*100.(Max:DMSOnegativecontrol) [formula]

TMD8 cells = test: Viability assay of TMD8 cells (CTG); conditions: Homo sapiens, cell viability, 120 hours
Protocol: as §1, §2

[1] = tested on: Ba/F3-ETV6-BTK-T474I cells; test: Viability assay of Ba/F3-ETV6-BTK-T474I cells (CTG); conditions: Mus musculus, BaF3, cell viability, 72 hours
Protocol: The in vitro antiproliferative activity of the compounds of the present disclosure against Ba/F3-ETV6-BTK-T474I cells was assayed using CTG luminescent cell viability assay. The specific assay methods were as follows: • a) Ba/F3-ETV6-BTK-T474I cells were cultured at 37 °C and 5% CO2 in complete medium [RPMI 1640 (supplier Gibco, product number 22400-089) + 10% FBS (supplier Gibco, product number 10091-148)]. • b) Cells in the logarithmic growth phase were harvested, and cell counting was performed using a […]. Trypan blue exclusion test was used to determine the cell viability, ensuring that the cell viability was above 90%. • c) Cell density was adjusted using complete culture medium. Then, the cells were inoculated at 90 µL, a total of 3000 cells per well in a 96-well cell culture plate (supplier: Shanghai Jing An Biotechnology Co., Ltd., product number J09601). • d) The cells in the 96-well plate were cultured at 37 °C and 5% CO2. • e) A 10-fold drug solution was prepared, and then 10 µL of each serially diluted compound was transferred to the corresponding assay wells of the 96-well cell plate so that the final assay concentration was 1000 nM, with 9 concentrations, 3.16-fold dilutions, and triplicates for each drug concentration. • f) The cells in the 96-well plate with the drug added were cultured at 37 °C and 5% CO2 for another 72 hours. Then, CTG analysis was performed. • g) The CTG reagent was melted, and the cell plate was equilibrated at room temperature for 30 minutes. • h) An equal volume of CTG solution was added to each well. • i) The plate was shaken on an orbital shaker for 5 minutes to lyse the cells. • j) The cell plate was placed at room temperature for 20 minutes to stabilize the luminescent signal. • k) The luminescent signal values were read and the data were collected.
The data were analyzed using GraphPad Prism 7.0 software. Nonlinear S-curve regression was used to fit the data to give a dose-response curve, from which the IC50 values were calculated. [formula]

IC50 (OCI-LY10 cells)	IC50 [1]	SMILES	IC50 (TMD8 cells)
≤ 5 nM	≤ 5 nM	COc1ccc(F)cc1C(=O)NCc1ccc(-c2ncc(-c3ccc(C(C)(C)O)cn3)c3[nH]nc(N)c23)cc1 [Example 65, N-(4-(3-amino-7-(5-(2-hydroxypropan-2-yl)pyridin-2-yl)-1H-pyrazolo[4,3-c]pyridin-4-yl)benzyl)-5-fluoro-2-methoxybenzamide]	≤ 5 nM
≤ 5 nM	≤ 5 nM	COc1ccc(F)cc1C(=O)NCc1ccc(-c2ncc(-c3ccc(CN4CCOCC4)cn3)c3[nH]nc(N)c23)cc1 [Example 67, N-(4-(3-amino-7-(5-(morpholinomethyl)pyridin-2-yl)-1H-pyrazolo[4,3-c]pyridin-4-yl)benzyl)-5-fluoro-2-methoxybenzamide]	≤ 5 nM
≤ 5 nM	10 to 50 nM	COc1ccc(F)cc1C(=O)NCc1ccc(-c2ncc(-c3cc4ccccn4n3)c3[nH]nc(N)c23)cc1 [Example 69, N-(4-(3-amino-7-(pyrazolo[1,5-a]pyridin-2-yl)-1H-pyrazolo[4,3-c]pyridin-4-yl)benzyl)-5-fluoro-2-methoxybenzamide]	≤ 5 nM
≤ 5 nM	≤ 5 nM	COc1ccc(F)cc1C(=O)NCc1ccc(-c2ncc(-c3ccc(N4CCN(C)C[C@H]4C)cn3)c3[nH]nc(N)c23)cc1 [Example 75, (R)-N-(-4-(3-amino-7-(5-(2,4-dimethylpiperazin-1-yl)pyridin-2-yl) 1H-pyrazolo[4,3-c]pyridin-4-yl)benzyl)-5-fluoro-2-methoxybenzamide]	≤ 5 nM
≤ 5 nM	≤ 5 nM	COc1ccc(F)cc1C(=O)NCc1ccc(-c2ncc(-c3ccc(N4CCOCC4)cn3)c3[nH]nc(N)c23)cc1 [Example 76, N-(4-(3-amino-7-(5-morpholinopyridin-2-yl)-1H-pyrazolo[4,3-c]pyridin-4-yl)benzyl)-5-fluoro-2-methoxybenzamide]	≤ 5 nM
10 to 50 nM	> 50 nM	COc1ccc(F)cc1C(=O)NCc1ccc(-c2nc(C3CCOCC3)cc3[nH]nc(N)c23)cc1 [Example 115, N-(4-(3-amino-6-(tetrahydro-2H-pyran-4-yl)-1H-pyrazolo[4,3-c]pyridin-4-yl)benzyl)-5-fluoro-2-methoxybenzamide]	10 to 50 nM

More lines, now with the values behind:

SMILES	IC50 (OCI-LY10 cells)	IC50 [1]	IC50 (TMD8 cells)
COc1ccc(F)cc1C(=O)NCc1ccc(-c2ncc(-c3ccc(CN4CCCCC4)cn3)c3[nH]nc(N)c23)cc1 [Example 66, N-(4-(3-amino-7-(5-(piperidin-1-ylmethyl)pyridin-2-yl)-1H-pyrazolo[4,3-c]pyridin-4-yl)benzyl)-5-fluoro-2-methoxybenzamide]	≤ 5 nM	≤ 5 nM	≤ 5 nM
COc1ccc(F)cc1C(=O)NCc1ccc(-c2ncc(-c3ccc(CN4CCN(C)CC4)cn3)c3[nH]nc(N)c23)cc1 [Example 68, N-(4-(3-amino-7-(5-((4-methylpiperazin-1-yl)methyl)pyridin-2-yl)-1H-pyrazolo[4,3-c]pyridin-4-yl)benzyl)-5-fluoro-2-methoxybenzamide]	≤ 5 nM	≤ 5 nM	≤ 5 nM
COc1ccc(F)cc1C(=O)NCc1ccc(-c2ncc(-c3cc4n(n3)CCN(C)C4)c3[nH]nc(N)c23)cc1 [Example 71, N-(4-(3-amino-7-(5-methyl-4,5,6,7-tetrahydropyrazolo[1,5-a]pyrazin-2-yl)-1H-pyrazolo[4,3-c]pyridin-4-yl)benzyl)-5-fluoro-2-methoxybenzamide]	≤ 5 nM	5 to 10 nM	≤ 5 nM
CCN1CCn2nc(-c3cnc(-c4ccc(CNC(=O)c5cc(F)ccc5OC)cc4)c4c(N)n[nH]c34)cc2C1 [Example 72, N-(4-(3-amino-7-(5-ethyl-4,5,6,7-tetrahydropyrazolo[1,5-a]pyrazin-2-yl)-1H-pyrazolo[4,3-c]pyridin-4-yl)benzyl)-5-fluoro-2-methoxybenzamide]	≤ 5 nM	5 to 10 nM	≤ 5 nM
COc1ccc(F)cc1C(=O)NCc1ccc(-c2ncc(-c3ccc(N4CCN(C)C[C@@H]4C)cn3)c3[nH]nc(N)c23)cc1 [Example 74, (S)-N-(-4-(3-amino-7-(5-(2,4-dimethylpiperazin-1-yl)pyridin-2-yl) 1H-pyrazolo[4,3-c]pyridin-4-yl)benzyl)-5-fluoro-2-methoxybenzamide]	≤ 5 nM	≤ 5 nM	≤ 5 nM
